The nature of data set [1]: MTT cytotoxicity assay, Caco-2. To be noted: human, Caco-2, ratio of IC50 for HEK-293 to IC50 for Caco-2; read-out: SF (selectivity factor) Caco-2. The data set is classed as cell-based, human. The text has this:
(§1) In vitro cytotoxic activities (MTT assay):
(§2) The basic detection of cytotoxicity of anticancer compounds in vitro is MTT assay. The MTT proliferation assay is based on the reduction of the yellow MTT tetrazolium salt (3-[4,5-dimethylthiazol-2-yl]-2,5diphenyltetrazolium bromide) by mitochondrial dehydrogenases to form a purple MTT formazan crystals in viable cells. Synthesized compounds (7a-g) were prior dissolved in 0.1% DMSO and then serial dilution with medium and used in the experiment. Three different types of cancer cell lines were used in this experiment i.e., human Epitheloid Cervix Carcinoma (HeLa), human colon cancer cell line (Caco-2) and one normal kidney cell (HEK-293) were used in the assay. The cells were harvested at the log phase and it is cell counted using haemocytometer. Approximately 1 × 10^3 cells per well were seeded using all the cell lines. They were cultured in 100 μL of a DMEM media in 96-well plates and incubated at 37 °C for 24 hours under a 5% CO2 atmosphere. The cells were then washed with 1X PBS buffer and fresh media was added to the cells. The cells were then treated with different concentrations of the drugs (0.65-150 µM) in the volume of […] /well.
(§3) The control wells contains the same cell count of 1 × 10^3 cells per well of 100 μL medium containing 0.1% DMSO. After 24 h (for HeLa cell and HEK-293) and 72 h (for Caco-2), the medium was discarded and it is washed with 1X PBS and it was incubated with 100 µl of MTT reagent (1 mg/ml) for 4 h at 37°C.
(§4) Then the 96 well plate was placed on the shaker for 10 min and subsequently the absorbance was recorded by the ELISA reader at λ = 490 nm. The experiments were performed in […]
(§5) triplicate. […]

For data set [2], the system named is Caco-2. Description: MTT cytotoxicity assay, Caco-2. In kind it is cell-based, human. To be noted: Homo sapiens, Caco-2; 72 h incubation.
Description: as §1, §2, §3, §4, §5

Data set [3] concerns HeLa. Put plainly: MTT cytotoxicity assay, HeLa. In kind it is cell-based, human. To be noted: for IC50: Homo sapiens, HeLa, 24 h incubation; for SF (selectivity factor) HeLa: ratio of IC50 for HEK-293 to IC50 for HeLa. Here is the method:
(§6) Cytotoxicity studies were performed for all the synthesized quinoxaline compounds (7a–7g) using standard 3-(4,5-dimethylthiazol-2-yl)-2,5-diphenyltetrazolium bromide (MTT) assay beside a panel of cancer cell lines such as human epithelioid cervix carcinoma (HeLa), human colorectal adenocarcinoma cell line (Caco-2) and one normal human embryonic kidney cells (HEK-293) in triplicates (Table 3). […] It is noteworthy to mention that Compound 7a and 7g presented best cytoselectivity in HeLa and Caco-2 cell lines respectively. […]
as §1
as §2, with “[…]. Cisplatin has been used as a standard positive control drug. The control wells contains the same cell count of 1 × 10^3 cells per well of 100 μL medium containing 0.1% DMSO. After 24 h (for HeLa cell and HEK-293) and 72 h (for Caco-2), the medium was discarded and it is washed with 1X PBS and it was incubated with 100 µl of MTT reagent (1 mg/ml) for 4 h at 37°C.” for “/well.”
as §4, §5

In data set [4] the test system is HEK-293. Description: MTT cytotoxicity assay, HEK-293 normal cells. In kind it is cell-based, human. To be noted: Homo sapiens, HEK293; 24 h incubation. Here is the method: as §6, §1
as §2, with “[…]. Cisplatin has been used as a standard positive control drug. The control wells contains the same cell count of 1 × 10^3 cells per well of 100 μL medium containing 0.1% DMSO. After 24 h (for HeLa cell and HEK-293) and 72 h (for Caco-2), the medium was discarded and it is washed with 1X PBS and it was incubated with 100 µl of MTT reagent (1 mg/ml) for 4 h at 37°C.” for “/well.”
as §4, §5

A short description of data set [5]: Fluorescence quantum yield in water. To be noted: 298 K, quinine sulphate as standard. In kind it is physicochemical. The procedure:
To know the absorption and emission behaviour of these synthesized compounds (7a–g), a standard concentration (3 × 10^−6 mol l^−1) in water has been used. In UV-vis spectra, λmax of all these compounds are observed at 320–330 nm due to π–π* transition (Fig. S1a ^†). The corresponding emission peaks are observed at 400–500 nm (Fig. S1b ^†). The emission of quantum yield (Φ) was calculated for all of the compounds (7a–g) using eqn (1) (Table S1 ^†). […]
2.6.2. Fluorescence study:
To know the emission property of all the synthesized complexes (7a-g), an initial investigation was performed using spectrofluorometric method in water by using absorption maximum as their excitation energy. Fluorescence quantum yield (Ф) of all the prepared compounds performed in water solution were calculated by employing the comparative William's method which involves the use of well-characterized standard with the known quantum yield value. Quinine sulphate was used as reference fluorophore excited at 350 nm and emission at 452 nm, quantum yield (ФR) = 0.50 in 1N H2SO4. The gradients of the plots are proportional to the quantum yield (Ф) of the studied system. The data obtained and quantum yield value calculated according to the equation (2): […]
Where, φ = Quantum yield, I = Peak Area, OD = absorbance at λmax, η = Refractive index of solvent and reference. Here, we have used Quinine Sulphate as a standard for calculating emission of quantum yield. […]

`Clc1cc2nc(COc3ccccc3-c3nc4ccccc4s3)c(COc3ccccc3-c3nc4ccccc4s3)nc2cc1Cl` [Compound 7e] returned a melting point of 145 to 150 °C. Besides, the selectivity ratio in data set [1] was above 9. Half-maximal inhibition in data set [2] (IC50) required 20.9 ± 1.6 µM. In data set [3], the IC50 was determined as 38.9 ± 0.1 µM and the “SF (selectivity factor) HeLa” value is on record as above 5.1. Besides, the IC50 in data set [4] was above 200 µM. Also, the “Φ, emission quantum yield” value in data set [5] is 0.04.

For `COc1ccc2nc(COc3ccccc3-c3nc4ccccc4s3)c(COc3ccccc3-c3nc4ccccc4s3)nc2c1` [Compound 7g, 2,2'-((((6-methoxyquinoxaline-2,3-diyl)bis(methylene))bis(oxy))bis(2,1-phenylene))bis(benzo[d]thiazole)], the melting point is 155 to 160 °C. The selectivity ratio in data set [1] was above 9. It took 20.8 ± 1.6 µM to reach half-maximal inhibition in data set [2] (IC50). In data set [3], the IC50 is 36.8 ± 0.2 µM and the “SF (selectivity factor) HeLa” value was above 5.4. This molecule returned an IC50 in data set [4] above 200 µM. The “Φ, emission quantum yield” value in data set [5] came out at 0.013.
